Data on 104 compounds can be found in PubChem BioAssay AID1996.

Values after ≈ are worked out from the molar mass of the structure shown.

The conditions of the data set: buffer; pH 7.4; 200.0 µM.
With `Clc1ccc2c(N3CCOCC3)ccnc2c1`, the kinetic solubility is greater than 37.3 µg/mL.
In the case of `CCOC(=O)CNC(=O)CNC(=O)c1ccc(OC(C)C)cc1`, the kinetic solubility was greater than 48.4 µg/mL.
The value for `NC(=O)c1ccsc1NC(=O)CN1C(=O)NC2(CCCC2)C1=O` was greater than 50.5 µg/mL.
Take `O=C(O)c1c(NC(=O)N(CCO)Cc2ccccc2)sc2c1CCCC2`: the kinetic solubility was found to be 18.3 µg/mL (≈ 48.9 µM).
As to `O=C1CSC(c2ccc([N+](=O)[O-])cc2)N1c1ccccc1F` (centres undefined), the solubility (kinetic) is greater than 47.7 µg/mL.
With `Cc1ccc(OCC(=O)Nc2ccc3c(c2)C(=O)NC3=O)cc1`, the kinetic solubility was 2.4 µg/mL (≈ 7.73 µM).
The value for `CN1CCCC(OC(=O)c2ccccc2Br)C1.Cl` (centres undefined) was greater than 50.2 µg/mL.
The value for `COc1cc(C)c(S(=O)(=O)NCc2cccnc2)cc1C` was greater than 46 µg/mL; that for `O=C(COC(=O)/C=C/c1ccc(F)cc1)NCc1ccc2c(c1)OCO2` was 4.9 µg/mL (≈ 13.7 µM).
`COc1ccc(O)c(/C=N/N2CCOCC2)c1` returned a kinetic solubility greater than 35.4 µg/mL.
For the compound `CC1=NC(C)(C)Cc2cc(C)c(C)cc21.Cl`, the kinetic solubility was greater than 35.7 µg/mL.
The value for `O=C(Nc1ccc(Cl)cc1N1CCOCC1)C1CCCO1` (centres undefined) was 44.7 µg/mL (≈ 144 µM).
The same measure for `N#Cc1ccc(CC(C(=O)O)N2Cc3ccccc3C2=O)cc1` (centres undefined): greater than 45.9 µg/mL; for `O=C(c1cncc(Br)c1)N1CCN(S(=O)(=O)c2ccc3ccccc3c2)CC1`: 6.5 µg/mL (≈ 14.1 µM).
`O=C1c2ccccc2S(=O)(=O)N1Cc1ccccc1[N+](=O)[O-]` registered a solubility (kinetic) of 0.7 µg/mL (≈ 2.2 µM).
For `CNC(=O)CSc1nnc(-c2ccc3c(c2)OCO3)n1C`, the solubility (kinetic) was greater than 46 µg/mL.
The compound `CC1CCN(C(=O)c2ccc(N3C(=O)C4CCC(C)CC4C3=O)cc2)CC1` (centres undefined) yielded a solubility (kinetic) of 48.4 µg/mL (≈ 131 µM).
The same measure for `COc1c(O)cccc1/C=N/NC(=O)Cn1ccnc1C`: greater than 43.2 µg/mL.
The same measure for `CC1(C)Cc2cccc(C(=O)NC3CCN(Cc4ccccc4)CC3)c2O1`: 53.2 µg/mL (≈ 146 µM); for `CC(C(=O)NC1CCCCCC1)c1ccc([N+](=O)[O-])cc1` (centres undefined): 7.1 µg/mL (≈ 24.5 µM); for `CC(=O)Nc1ccc(-c2cc(C(=O)O)c3ccc(C)cc3n2)cc1`: greater than 48.1 µg/mL.
The same measure for `Cn1c(SCc2ccccc2C#N)nc2ccccc2c1=O`: 1 µg/mL (≈ 3.25 µM).
The compound `O=S(=O)(NC1CCCCC1N1CCC(O)CC1)c1ccccc1` (centres undefined) registered a solubility (kinetic) greater than 50.8 µg/mL.
The value for `COC(=O)C1=C(NC(=O)c2ccccc2[N+](=O)[O-])CCS1` was 8.4 µg/mL (≈ 27.2 µM); that for `CN(C(=O)CSc1nc(N)cc(N)n1)C1CCS(=O)(=O)C1` (centres undefined) was 41 µg/mL (≈ 124 µM).
The same measure for `O=C(O)CCCNC(=O)Cc1ccccc1`: greater than 33.2 µg/mL; for `O=C(NCC1COc2ccccc2O1)C1(c2ccccc2)CCCC1` (centres undefined): 17.8 µg/mL (≈ 52.8 µM).
The same measure for `O=C(Nc1nccs1)c1ccc(Cl)c([N+](=O)[O-])c1`: 6.9 µg/mL (≈ 24.3 µM); for `COC(=O)c1ccc(NC(=O)Nc2ccc(OC)cc2)cc1`: 1.4 µg/mL (≈ 4.66 µM); for `O=C(Nc1cc(Cl)cc(Cl)c1)C1CCCC1`: less than 0.6 µg/mL.
Regarding `O=C(NCC1CCCO1)C1CC(=O)N(c2cccc(Cl)c2)C1` (centres undefined), the solubility (kinetic) turned out to be 46.6 µg/mL (≈ 144 µM).
The value for `O=C(NCc1ccc(Cl)c(Cl)c1)C1CCCC1` was 32.6 µg/mL (≈ 120 µM); that for `CC1=C(C)CC(C(=O)NC2CCCC2)C(C(=O)O)C1` (centres undefined) was greater than 39.8 µg/mL.
The value for `Cc1ccc(CNS(=O)(=O)c2c(C)n(C)c(=O)n(C)c2=O)cc1` was greater than 50.6 µg/mL; that for `Cc1cc2nc(/C(C#N)=C/c3ccncc3)[nH]c2cc1C` was 1.7 µg/mL (≈ 6.2 µM); that for `NC(=S)c1cc2cc(Cl)ccc2oc1=O` was 1.6 µg/mL (≈ 6.68 µM).
In turn, `Cc1cccc(OCC(=O)Nc2ccncc2)c1` returned a kinetic solubility greater than 36.3 µg/mL.
The value for `COc1ccc(CN2CCNCC2)cc1.Cl` was greater than 36.4 µg/mL; that for `C=CCNC(=O)C1CCN(c2cnccn2)CC1` was greater than 36.9 µg/mL; that for `O=C(COc1ccccc1)Nc1ccc(C(=O)N2CCCC2)cc1` was 34.1 µg/mL (≈ 105 µM).
The same measure for `Cc1ccc2c(c1)C1C[N+](C)(CC(=O)c3ccc(Cl)cc3Cl)CCC1N2C(=O)c1ccc(F)cc1.[Cl-]` (centres undefined): greater than 82.2 µg/mL; for `Cc1ccc(S(=O)(=O)c2cc3ccccc3nc2N)cc1`: 0.5 µg/mL (≈ 1.68 µM); for `O=C(Nc1ccc(Cl)cc1)c1ccc(Br)cc1F`: less than 0.7 µg/mL.
The value for `COc1cccc(S(=O)(=O)NCc2ccc(C(=O)N3CCN(C)CC3)cc2)c1` was greater than 60.5 µg/mL; that for `CSc1ccc(C2NC(=O)c3ccccc3N2)cc1` (centres undefined) was 2.6 µg/mL (≈ 9.62 µM).
`COc1ncnc(OC)c1S(=O)(=O)NCc1ccccc1` gave a solubility (kinetic) greater than 46.4 µg/mL.
In turn, `CC1Cc2ccccc2N1CC(=O)Nc1cccc(S(N)(=O)=O)c1` (centres undefined) showed a solubility (kinetic) greater than 51.8 µg/mL.
The same measure for `C=C(C)CNC(=S)NNC(=O)c1ccncc1`: greater than 37.5 µg/mL.
The value for `CSc1ncccc1C(=O)Nc1ccncc1` was 34.6 µg/mL (≈ 141 µM).
The same measure for `C=CCNc1cc(=O)n(Cc2ccccc2)c(=O)[nH]1`: 29.7 µg/mL (≈ 115 µM); for `O=[N+]([O-])c1ccc(CNc2cccc(Cl)c2)s1`: 6.3 µg/mL (≈ 23.4 µM); for `CC(=O)Nc1ccc(C(=O)COC(=O)c2ccco2)c(F)c1`: greater than 45.8 µg/mL.
Consider `Clc1ccccc1CN1CCN(c2cccc3[nH]ccc23)CC1`, for which the solubility (kinetic) came out at 23.5 µg/mL (≈ 72.1 µM).
The value for `CC(=O)N1CCc2cc(S(=O)(=O)NC3CCCCC3)ccc21` was 6.4 µg/mL (≈ 19.8 µM); that for `O=C(Nc1ccc(Cl)cc1)N1CCOC12CCCCC2` was greater than 44.2 µg/mL; that for `Cc1cccc(C(=O)Nc2ccc3c(c2)ncn3C)c1` was greater than 39.8 µg/mL.
The same measure for `CCN(C(=O)COC(=O)Cc1c[nH]c2ccccc12)C1CCS(=O)(=O)C1` (centres undefined): greater than 56.8 µg/mL; for `CCc1ccc(C(=O)CSc2nc(N)cc(=O)[nH]2)cc1`: 14.2 µg/mL (≈ 49.1 µM); for `CC1CCCN(S(=O)(=O)c2cc3c4c(c2)CCN4C(=O)CC3)C1` (centres undefined): greater than 50.2 µg/mL.
The same measure for `COc1ccc(-c2c(C#N)c(N)nc(Sc3ccc(Cl)cc3)c2C#N)cc1`: less than 0.2 µg/mL.
`COc1ccc(N2CCN(C(=O)c3cccc(NS(=O)(=O)c4cccc(F)c4)c3)CC2)cc1` gave a solubility (kinetic) of 52.8 µg/mL (≈ 112 µM).
The same measure for `CC(=O)NC(c1ccc(C(C)C)cc1)c1ccc2cccnc2c1O` (centres undefined): 0.4 µg/mL (≈ 1.2 µM).
Compound `Cc1c(C(=O)NN2CCOCC2)cccc1[N+](=O)[O-]` gave a solubility (kinetic) greater than 39.8 µg/mL.
For the compound `CC(C(=O)N1CCCC1)N1CCN(c2ccccc2O)CC1` (centres undefined), the kinetic solubility is greater than 45.5 µg/mL.
The same measure for `O=C(OCc1cc(Cl)cc2c1OCOC2)c1cccnc1Cl`: 8.5 µg/mL (≈ 25 µM); for `OC(C#CCN1CCCC1)(c1ccccc1)c1cccnc1` (centres undefined): greater than 43.9 µg/mL; for `COc1cccc(NC(=O)C(c2ccccc2)N2CCCC2)c1` (centres undefined): greater than 46.6 µg/mL.
The value for `Cn1c(-c2ccccc2)cnc1NCc1ccccc1` was 34.9 µg/mL (≈ 133 µM).
The value for `COc1ccc(OC)c(CNC(=O)C2CCC(=O)N2C(C)C)c1` (centres undefined) was greater than 48.1 µg/mL; that for `CC1CCN(C2CCN(C(=O)c3ccccc3F)CC2)CC1` was 34.7 µg/mL (≈ 114 µM).
For the compound `COc1ccc(CC(C)Nc2ccccc2F)cc1` (centres undefined), the solubility (kinetic) was less than 0.6 µg/mL.
The same measure for `O=C(COC(=O)CNC(=O)C1CCCCC1)Nc1ccc(F)c([N+](=O)[O-])c1`: greater than 57.2 µg/mL; for `O=C(COC(=O)CCC(=O)c1cccs1)NCCc1ccccc1`: greater than 51.8 µg/mL; for `CC(C(=O)Nc1ccc(S(=O)(=O)N2CCCC2)cc1)N1CCN(c2ccccc2O)CC1` (centres undefined): 12.6 µg/mL (≈ 27.5 µM).
The value for `Cc1noc(C)c1COc1ccccc1C(=O)NC1CCC(C)CC1` (centres undefined) was greater than 51.4 µg/mL.
The same measure for `Cc1cccc(NC(=S)NCCc2ccccc2)c1C`: 4.1 µg/mL (≈ 14.4 µM); for `OC(C#CCN1CCCCC1)(c1ccccc1)c1ccccc1`: 13 µg/mL (≈ 42.6 µM); for `O=C(Nc1ccc(OC(F)(F)F)cc1)c1ccc2nccnc2c1`: 11.4 µg/mL (≈ 34.2 µM).
As to `COc1cccc(NC(=O)CN2C(=O)NC(C)(C3CC3)C2=O)c1` (centres undefined), the kinetic solubility was greater than 47.6 µg/mL.
The value for `CCc1[nH]c(C(=O)O)c(C)c1C(=O)OC` was greater than 31.7 µg/mL.
The same measure for `Cc1nc(NC(=O)C2CCCCC2C(=O)O)sc1C` (centres undefined): 40.5 µg/mL (≈ 143 µM); for `COc1ccccc1Nc1nc(NCc2ccco2)nc(N)c1[N+](=O)[O-]`: less than 0.1 µg/mL.
On to `COc1cccc(C(=O)O/N=C(\N)c2ccc(C)cc2)c1`, for which the solubility (kinetic) is 10.2 µg/mL (≈ 35.9 µM).
The same measure for `O=C(CN1CCN(Cc2ccccc2Cl)C1=O)NCc1ccccn1`: greater than 53.8 µg/mL.
In turn, `C=CCNC(=S)/N=c1/ccccn1CC` registered a solubility (kinetic) of 28.7 µg/mL (≈ 130 µM).
`Nc1nc(-c2nonc2N)no1`: the kinetic solubility is greater than 25.2 µg/mL.
The compound `S=C1Cc2ccccc2C(c2ccc(Cl)cc2)N1` (centres undefined) displayed a kinetic solubility of 4.9 µg/mL (≈ 17.9 µM).
The same measure for `O=C(C[n+]1cc[nH]c1)c1ccc(Cl)cc1.[Cl-]`: greater than 38.6 µg/mL; for `O=C(O)CSc1nc2ccccc2n1-c1ccccc1`: greater than 42.6 µg/mL; for `O=C(COC(=O)COc1ccc(Cl)cc1Cl)NC1CCS(=O)(=O)C1` (centres undefined): greater than 59.4 µg/mL.
For `COc1ccc(S(=O)(=O)NC2CC(C)(C)NC(C)(C)C2)cc1`, the solubility (kinetic) is greater than 49 µg/mL.
The same measure for `Cc1ccc(NC(=S)Nc2ccc(F)cc2)cc1C`: 12.2 µg/mL (≈ 44.5 µM); for `Cc1ccc(CC(=O)NCC(O)c2ccccc2)cc1` (centres undefined): 33.4 µg/mL (≈ 124 µM).
The same measure for `CN(C)c1ccc(C(=O)OCC(=O)c2ccc[nH]2)cc1`: 7.8 µg/mL (≈ 28.6 µM); for `O=C(N[C@@H](Cc1c[nH]c2ccccc12)C(=O)O)c1ccccc1Cl`: 45.8 µg/mL (≈ 134 µM).
The compound `Cc1cccc(CSCc2ccc(C(=O)NCC3CCCO3)o2)c1` (centres undefined) returned a kinetic solubility of 46.6 µg/mL (≈ 135 µM).
The same measure for `CC1(C)CC(=O)C(C(N)=NC(=O)c2ccc([N+](=O)[O-])cc2)=C(O)C1`: 0.7 µg/mL (≈ 2.11 µM); for `Cc1ccc(NC(=O)CN(C)C(=O)Cc2c[nH]c3ccccc23)cc1`: greater than 50.3 µg/mL; for `COc1ccccc1OCc1csc(N)n1`: greater than 35.4 µg/mL.
The value for `CN(C)C(=O)C1CCC(=O)N1Cc1cccs1` (centres undefined) was greater than 37.8 µg/mL.
The value for `COc1ccc(Nc2cc(C)c3cc([N+](=O)[O-])ccc3n2)cc1` was less than 0.2 µg/mL; that for `O=C1NC(c2ccc(F)cc2)Oc2ccccc21` (centres undefined) was 6.4 µg/mL (≈ 26.3 µM).
`COc1ccccc1-n1c(SCC(=O)NCc2ccc3c(c2)OCO3)nc2cc([N+](=O)[O-])ccc21`: the solubility (kinetic) is 3.1 µg/mL (≈ 6.29 µM).
The value for `N#Cc1ccc(Oc2c(Cl)cncc2Cl)cc1` was 23.2 µg/mL (≈ 87.5 µM).
